From paper PMC1892040 (PLoS Medicine, 2007)
Where two headings read alike, the source gives them in different places.

What was measured:
[1] = molecular target: T1, S. mansoni TGR (Schistosoma mansoni, UniProt Q962Y6); format: biochemical; set-up: The entire TGR ORF plus the SECIS element was subcloned into pET-24a; made in house; host or cells: Escherichia coli BL21(DE3) with pSUABC; conditions: read-out: IC50 S. mansoni TGR, GSSG (GR activity)
T1 sequence (Q962Y6 1-598): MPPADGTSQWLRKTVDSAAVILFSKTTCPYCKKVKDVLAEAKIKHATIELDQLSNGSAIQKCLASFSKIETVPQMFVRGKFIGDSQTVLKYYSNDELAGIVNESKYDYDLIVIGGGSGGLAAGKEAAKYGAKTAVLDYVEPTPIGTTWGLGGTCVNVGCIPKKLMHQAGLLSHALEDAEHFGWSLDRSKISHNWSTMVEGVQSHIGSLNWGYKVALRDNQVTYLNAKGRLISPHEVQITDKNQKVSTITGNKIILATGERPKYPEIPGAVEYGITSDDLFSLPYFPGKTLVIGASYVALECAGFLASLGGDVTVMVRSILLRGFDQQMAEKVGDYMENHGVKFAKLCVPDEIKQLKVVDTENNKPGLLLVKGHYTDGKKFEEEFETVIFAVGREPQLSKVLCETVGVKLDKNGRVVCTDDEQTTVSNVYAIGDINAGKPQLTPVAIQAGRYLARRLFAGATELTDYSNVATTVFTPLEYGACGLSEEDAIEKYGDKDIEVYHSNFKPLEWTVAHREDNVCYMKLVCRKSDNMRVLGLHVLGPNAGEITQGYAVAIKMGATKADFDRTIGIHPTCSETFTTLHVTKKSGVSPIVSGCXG
Procedure: (§1) Assays were performed at 25 °C in 0.1 M potassium phosphate (pH 7.4), 10 mM EDTA using 100 μM NADPH unless otherwise stated.
(§2) Initial inhibitor screens were conducted in 200 μl volumes in 96 well plates with 50 μM inhibitor, 100 μM NADPH, and 5 nM TGR in 0.1 M potassium phosphate (pH 7.4), 10 mM EDTA with a preincubation step of 15 min. […] All assays were done in triplicate.

[2] = molecular target: T1, S. mansoni TGR; assay: biochemical; format: biochemical; set-up: The entire TGR ORF plus the SECIS element was subcloned into pET-24a; made in house; host or cells: Escherichia coli BL21(DE3) with pSUABC; conditions: for Type of inhibition of TGR: reciprocal plots, TrxR and GR activities
Procedure: The inhibitory constants (K i) were determined using Equation 1 [21]: [drawing 1] where v maxapp is the apparent v max at different inhibitor concentrations and corresponds to the value of the 1/v intercept on the reciprocal plot.
The apparent Vmax for various concentrations of inhibitors were used to calculate K i values. Concentrations of PAT are no drug (♦), 10 nM, 30 nM (▴), and 75 nM (×); and of OPZ are no drug (♦), 50 μM, 75 μM (▴), and 100 μM (×).

[3] = system: myeloma cell line SP2/0; assay: Cytotoxicity assay (sulforhodamine B); format: cell-based; conditions: adult worms 24 h; myeloma cells 24 h and 5 d
Procedure: Cytotoxicity assays were performed using sulforhodamine B to determine cellular protein content as described. Briefly, myeloma cell line SP2/0 was cultured in 96-well microtiter plates containing 0.2 ml of RPMI-1640 per well at a cell density of 1,000 per well at 37 °C in 5% CO2. Cells were treated with drug concentrations (or drug carrier alone) and exposure times as indicated. After treatment, cells were fixed with 10% TCA at 4 °C for 1 h. Fixed cells were rinsed to remove fixative and then stained in 0.4% (w/v) sulforhodamine B (Sigma) in 1% acetic acid for 30 min. After washing with 1% acetic acid and dye extraction in 10 mM Tris (pH 10.5), plates were read at A564nm. The A564nm of drug-treated cells was compared to carrier-only-treated cells. The treatments were done in triplicate and the experiments repeated three times.

[4] = molecular target: T1, S. mansoni TGR
Procedure: as §1, §2

[5] = molecular target: phosphofructokinase (PFK); set-up: method as in PMID 8898332; conditions: cited from earlier work
[6] = molecular target: T1, S. mansoni TGR; format: biochemical; set-up: The entire TGR ORF plus the SECIS element was subcloned into pET-24a; made in house; host or cells: Escherichia coli BL21(DE3) with pSUABC; conditions: read-out: IC50 S. mansoni TGR, DTNB (TrxR activity)
Procedure: as §1, §2

[7] = system: Human TGR; conditions: read-out: Apparent Km, Human TGR; cited from earlier work
[8] = system: Human TrxR1; conditions: read-out: Apparent Km, Human TrxR1; cited from earlier work
[9] = molecular target: T2, Human GR (Homo sapiens, UniProt P00390); conditions: read-out: Apparent Km, Human GR; cited from earlier work
T2 sequence (P00390 44-522): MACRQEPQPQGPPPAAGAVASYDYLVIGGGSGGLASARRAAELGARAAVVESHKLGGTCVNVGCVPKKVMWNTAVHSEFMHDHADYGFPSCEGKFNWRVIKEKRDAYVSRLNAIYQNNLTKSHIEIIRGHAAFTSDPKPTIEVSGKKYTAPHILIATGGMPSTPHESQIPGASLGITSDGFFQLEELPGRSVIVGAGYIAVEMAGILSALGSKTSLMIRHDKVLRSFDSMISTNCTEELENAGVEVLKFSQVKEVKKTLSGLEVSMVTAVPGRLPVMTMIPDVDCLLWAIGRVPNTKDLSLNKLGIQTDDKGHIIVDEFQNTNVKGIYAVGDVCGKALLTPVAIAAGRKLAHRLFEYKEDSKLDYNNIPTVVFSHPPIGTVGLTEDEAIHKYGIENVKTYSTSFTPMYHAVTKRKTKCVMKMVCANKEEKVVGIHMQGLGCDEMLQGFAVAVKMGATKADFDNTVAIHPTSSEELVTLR

[10] = molecular target: T1, S. mansoni TGR; assay: Kinetic analysis of recombinant S. mansoni TGR with substrates
Procedure: Kinetic parameters were determined using Lineweaver–Burk plots using KaleidaGraph 4 (Synergy Software, http://www.synergy.com) least squares best fit of data and varying concentrations of one substrate while maintaining the concentration of other substrates. […] All assays were done in triplicate.

[11] = molecular target: T1, S. mansoni TGR; conditions: rough estimation at low OPZ concentrations
Procedure: OPZ concentrations were 0 (•), 25 (□), 50 (♦), 75 (Δ), and 100 (▴) μM. All incubation mixtures included 2% final DMSO. […] The error bars in (B) and (D) represent ± the standard errors of the k obs values estimated separately at each inhibitor concentration, as obtained from nonlinear regression analysis.

[12] = molecular target: T2, Human GR; assay: Inhibition of human GR (GSSG); format: biochemical; conditions: 12.5 μM compound, 200 μM disulfide substrate, preincubation 60 min at 37 °C; read-out: Percent inhibition of Human GR
Source text: (§3) In order to assess the potential for inhibition of TGR we screened several structurally diverse series of compounds (Figure S1) known to act as inhibitors of disulfide reductases from various organisms.

[13] = molecular target: T3, Human TrxR (Homo sapiens, UniProt Q16881); assay: Inhibition of human TrxR (DTNB/Trx); format: biochemical; conditions: 12.5 μM compound, 200 μM disulfide substrate, preincubation 60 min at 37 °C; read-out: Percent inhibition of Human TrxR
T3 sequence (Q16881 1-499 isoform Q16881-5): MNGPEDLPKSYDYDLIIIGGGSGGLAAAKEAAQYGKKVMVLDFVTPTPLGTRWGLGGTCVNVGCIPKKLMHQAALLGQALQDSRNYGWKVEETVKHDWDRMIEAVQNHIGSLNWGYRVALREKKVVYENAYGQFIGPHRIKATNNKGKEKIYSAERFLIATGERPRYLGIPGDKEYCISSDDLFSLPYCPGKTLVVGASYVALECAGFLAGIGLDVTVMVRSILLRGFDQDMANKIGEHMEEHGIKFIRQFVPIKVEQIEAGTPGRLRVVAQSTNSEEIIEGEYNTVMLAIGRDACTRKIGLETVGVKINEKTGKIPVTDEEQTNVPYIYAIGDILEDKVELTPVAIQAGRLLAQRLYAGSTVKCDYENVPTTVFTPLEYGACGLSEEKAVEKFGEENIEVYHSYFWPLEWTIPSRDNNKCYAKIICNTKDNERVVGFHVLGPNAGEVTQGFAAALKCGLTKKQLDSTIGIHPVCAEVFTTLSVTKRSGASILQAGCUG
Source text: as §3

[14] = substrate of TGR (20 nM), 25 °C, pH 7.4, 100 μM NADPH, ± SD

O.O.O.O=C([O-])[C@H]([O-])[C@@H]([O-])C(=O)[O-].O=C([O-])[C@H]([O-])[C@@H]([O-])C(=O)[O-].[K+].[K+].[Sb+3].[Sb+3] [PAT, potassium antimonyl tartrate] gave an IC50 [1] of 0.037 µM, a Ki ([2]; DTNB as substrate, read-out: Ki (± standard deviation), TrxR activity of TGR) of 0.00486 ± 0.00046 µM and a Ki ([2]; GSSG as substrate, read-out: Ki (± standard deviation), GR activity of TGR) of 0.00722 ± 0.00496 µM. For the same compound, the “Type of inhibition of TGR” value [2] was “noncompetitive”, the “Differential in toxicity between adult worms and mammalian cells” value [3] was “similarly large differential in toxicity” and the “Activity of Enzyme (% of Uninhibited Enzyme)” value [4] was 0%. The IC50 [5] was 16 µM and the IC50 [6] was 0.051 µM.
For NC(=O)C1=CN([C@@H]2O[C@H](COP(=O)(O)OP(=O)(O)OC[C@H]3O[C@@H](n4cnc5c(N)ncnc54)[C@H](OP(=O)(O)O)[C@@H]3O)[C@@H](O)[C@H]2O)C=CC1 [NADPH], the Km [7] is listed as 10.7 µM, the Km [8] is listed as 19.6 µM and the Km [9] is listed as 8.5 µM. The Km ([10]; read-out: Apparent Km, S. mansoni TGR) was 13.7 µM, the kcat ([10]; substrate of TGR (20 nM), 25 °C, pH 7.4, 100 μM NADPH) was 20.1 s⁻¹ and the Km [10, 14] was 13.7 ± 2.4 µM. The Vmax [10, 14] was 25.1 ± 1.8 µM/min.
With Cc1c(-c2cnccn2)ssc1=S [OPZ, oltipraz] the “k i, first-order rate constant for irreversible inactivation, GR assay” value [11] was about 0.04 min⁻¹, the “k i, first-order rate constant for irreversible inactivation, TrxR assay” value [11] was about 0.06 min⁻¹ and the inhibition at 12.5 µM [12] was 0%. For the same compound, the Ki ([2]; Ki (± standard deviation), GR activity of TGR, GSSG as substrate) was 33.8 ± 6 µM, the Ki ([2]; Ki (± standard deviation), TrxR activity of TGR, DTNB as substrate) was 18.1 ± 1.1 µM and the “Type of inhibition of TGR” value [2] was “noncompetitive”. It also gave an inhibition at 12.5 µM [13] of 37% and an activity [4] of 13%.
